Measurements: patent US20060069132A1, “Azolecarboxamide herbicides” (priority 2004, published 2006)

Experiments:
Surinam grass = assay: Test B pre-/postemergence herbicide test; format: in vivo, Urochloa decumbens; details: for Surinam Grass plant response rating (0 to 100 scale) / Plant response rating, Surinam Grass: 0 = no effect, 100 = complete control
In short: (§1)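 Test chemicals in a non-phytotoxic solvent mixture with surfactant were applied preemergence to seeded species and postemergence to plants 2-18 cm tall (1- to 4-leaf stage); rice and barnyardgrass were also tested in a flooded paddy at the 2-leaf stage. Visual rating versus controls after 13-15 days in greenhouse, scale 0 (no effect) to 100 (complete control).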

[1] = test system: small flower umbrella sedge; assay: Test B flooded paddy test; format: in vivo, Cyperus difformis; details: 1000 g ai/ha, scale 0 to 100 (0 no effect, 100 complete control)
In short: (§2)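 Formulated test chemicals went onto postemergence plants measuring 2 to 18 cm, at one to four leaves. For the paddy assay, species had reached two leaves. Scoring took place 13–15 days later by eye, relative to untreated plants, using 0 for no effect up to 100 for full control.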

wheat = assay: Test B postemergence herbicide test; format: in vivo, Triticum aestivum; design: key to Wheat plant response rating: 0 = no effect, 100 = complete control
In short: (§3)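 Treated at 2-leaf (paddy) or 1–4-leaf, 2–18 cm (postemergence); greenhouse 13–15 d; visual score vs control, 0 none to 100 complete control; dash = not tested.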

pigweed = assay: Test B pre-/postemergence herbicide test; format: in vivo, Amaranthus retroflexus; details: for Pigweed plant response rating (0 to 100 scale) / Plant response rating, Pigweed: 0 = no effect, 100 = complete control
In short: as §1

lambsquarters = assay: Test B pre-/postemergence herbicide test; format: in vivo, Chenopodium album; details: for Lambsquarters plant response rating (0 to 100 scale) / Plant response rating, Lambsquarters: 0 = no effect, 100 = complete control
In short: as §1

barnyardgrass = assay: Test B pre-/postemergence herbicide test; format: in vivo, Echinochloa crus-galli; details: for Barnyardgrass plant response rating (0 to 100 scale) / Plant response rating, Barnyardgrass: 0 = no effect, 100 = complete control
In short: (§4)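 Plants compared with untreated controls 13–15 days post-treatment and given a visual 0–100 injury score. Applications: preemergence to seeds; postemergence at 1- to 4-leaf (2–18 cm); paddy species flooded, 2-leaf stage. Vehicle non-phytotoxic, surfactant included.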

giant foxtail = assay: Test B pre-/postemergence herbicide test; format: in vivo, Setaria faberi; details: for Foxtail, Giant plant response rating (0 to 100 scale) / Plant response rating, Foxtail, Giant: 0 = no effect, 100 = complete control
In short: as §1

large crabgrass = assay: Test B pre-/postemergence herbicide test; format: in vivo, Digitaria sanguinalis; details: for Crabgrass, Large plant response rating (0 to 100 scale) / Plant response rating, Crabgrass, Large: 0 = no effect, 100 = complete control
In short: as §1

cocklebur = assay: Test B pre-/postemergence herbicide test; format: in vivo, Xanthium strumarium; details: for Cocklebur plant response rating (0 to 100 scale) / Plant response rating, Cocklebur: 0 = no effect, 100 = complete control
In short: as §4

ducksalad = assay: Test B flooded paddy test; format: in vivo, Heteranthera limosa; details: 1000 g ai/ha, scale 0 to 100 (0 no effect, 100 complete control)
In short: as §2

wild oat = assay: Test B postemergence herbicide test; format: in vivo, Avena fatua
In short: as §3

velvetleaf = assay: Test B pre-/postemergence herbicide test; format: in vivo, Abutilon theophrasti
In short: as §1

rice = assay: Test B flooded paddy test; format: in vivo, Oryza sativa; details: 1000 g ai/ha, scale 0 to 100 (0 no effect, 100 complete control)
In short: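 Paddy species grown to the 2-leaf stage under flooding; blackgrass sprayed postemergence at 2–18 cm (1- to 4-leaf stage). Plants kept in a greenhouse for 13 to 15 days, then visually rated against controls on 0 (no effect) to 100 (complete control).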

corn = assay: Test B pre-/postemergence herbicide test; format: in vivo, Zea mays; details: for Corn plant response rating (0 to 100 scale) / Plant response rating, Corn: 0 = no effect, 100 = complete control
In short: as §1

blackgrass = assay: Test B postemergence herbicide test; format: in vivo, Alopecurus myosuroides
In short: as §2

[2] = 500 g ai/ha, visual rating, preemergence
[3] = postemergence, 125 g ai/ha, visual rating, scale 0 (no effect) to 100 (complete control)
[4] = postemergence, 500 g ai/ha, scale 0 to 100, 0 is no effect, 100 is complete control
[5] = 500 g ai/ha, visual rating, 0 = no effect, 100 = complete control, preemergence
[6] = 125 g ai/ha, 0 is no effect, 100 is complete control, preemergence
[7] = 125 g ai/ha, visual rating, scale 0 (no effect) to 100 (complete control), postemergence
[8] = Postemergence, 500 g ai/ha, scale 0 (no effect) to 100 (complete control)

CCn1nc(C(C)(C)C)cc1C(=O)Nc1cccc(OC(C)C)c1 [Compound 273]
Surinam Grass plant response rating (0 to 100 scale) (Surinam grass; 125 g ai/ha, preemergence): 20
Plant response rating, Surinam Grass (Surinam grass; [2]): 50
Surinam Grass plant response rating (Surinam grass; [3]): 20
Surinam Grass plant response rating (Surinam grass; [4]): 40
Sedge, Umbrella plant response rating [1]: 80
Wheat plant response rating (wheat; [3]): 30
Wheat plant response rating (wheat; [4]): 40
Pigweed plant response rating (0 to 100 scale) (pigweed; 125 g ai/ha, preemergence): 70
Plant response rating, Pigweed (pigweed; [2]): 100
Pigweed plant response rating (pigweed; [3]): 80
Pigweed plant response rating (pigweed; [4]): 90
Lambsquarters plant response rating (0 to 100 scale) (lambsquarters; 125 g ai/ha, preemergence): 70
Plant response rating, Lambsquarters (lambsquarters; [2]): 100
Lambsquarters plant response rating (lambsquarters; [3]): 60
Lambsquarters plant response rating (lambsquarters; [4]): 90
Barnyardgrass plant response rating (0 to 100 scale) (barnyardgrass; 125 g ai/ha, preemergence): 30
Plant response rating, Barnyardgrass (barnyardgrass; [2]): 90
Barnyardgrass plant response rating (barnyardgrass; [3]): 20
Barnyardgrass plant response rating (barnyardgrass; [4]): 70
Foxtail, Giant plant response rating (0 to 100 scale) (giant foxtail; 125 g ai/ha, preemergence): 50
Plant response rating, Foxtail, Giant (giant foxtail; [2]): 90
Foxtail, Giant plant response rating (giant foxtail; [3]): 10
Foxtail, Giant plant response rating (giant foxtail; [4]): 20
Crabgrass, Large plant response rating (0 to 100 scale) (large crabgrass; 125 g ai/ha, preemergence): 80
Plant response rating, Crabgrass, Large (large crabgrass; [2]): 100
Crabgrass, Large plant response rating (large crabgrass; [3]): 30
Crabgrass, Large plant response rating (large crabgrass; [4]): 50
Cocklebur plant response rating (0 to 100 scale) (cocklebur; 125 g ai/ha, preemergence): 0
Plant response rating, Cocklebur (cocklebur; [2]): 0
Cocklebur plant response rating (cocklebur; [3]): 20
Cocklebur plant response rating (cocklebur; [4]): 80
Ducksalad plant response rating (ducksalad): 90
Oat, Wild plant response rating (wild oat; [3]): 30
Oat, Wild plant response rating (wild oat; [4]): 50
Velvetleaf plant response rating (0 to 100 scale) (velvetleaf; 125 g ai/ha, 0 = no effect, 100 = complete control, preemergence): 10
Plant response rating, Velvetleaf (velvetleaf; [5]): 40
Velvetleaf plant response rating (velvetleaf; [3]): 40
Velvetleaf plant response rating (velvetleaf; [4]): 70
Rice plant response rating (rice): 40
Corn plant response rating (0 to 100 scale) (corn; 125 g ai/ha, preemergence): 0
Plant response rating, Corn (corn; [2]): 30
Corn plant response rating (corn; [3]): 10
Corn plant response rating (corn; [4]): 20
Blackgrass plant response rating (blackgrass; [3]): 50
Blackgrass plant response rating (blackgrass; [4]): 70

CCNC(=O)c1ccc(F)c(N(C(C)=O)C(=O)c2cc(C(C)(C)C)nn2CC)c1 [Compound 399]
Plant response rating (0 to 100 scale), Surinam Grass (Surinam grass; [6]): 90
Surinam Grass plant response rating (Surinam grass; [7]): 20
Surinam Grass plant response rating (Surinam grass; [8]): 40
Sedge, Umbrella plant response rating [1]: 80
Wheat plant response rating (wheat; [7]): 10
Wheat plant response rating (wheat; 500 g ai/ha, scale 0 to 100, 0 no effect, 100 complete control, preemergence): 100
Wheat plant response rating (wheat; [8]): 30
Plant response rating (0 to 100 scale), Pigweed (pigweed; [6]): 100
Pigweed plant response rating (pigweed; [7]): 60
Pigweed plant response rating (pigweed; [8]): 80
Plant response rating (0 to 100 scale), Lambsquarters (lambsquarters; [6]): 100
Lambsquarters plant response rating (lambsquarters; [7]): 80
Lambsquarters plant response rating (lambsquarters; [8]): 100
Plant response rating (0 to 100 scale), Barnyardgrass (barnyardgrass; [6]): 90
Barnyardgrass plant response rating (barnyardgrass; [7]): 10
Barnyardgrass plant response rating (barnyardgrass; [8]): 40
Plant response rating (0 to 100 scale), Foxtail, Giant (giant foxtail; [6]): 100
Foxtail, Giant plant response rating (giant foxtail; [7]): 30
Foxtail, Giant plant response rating (giant foxtail; [8]): 50
Plant response rating (0 to 100 scale), Crabgrass, Large (large crabgrass; [6]): 100
Crabgrass, Large plant response rating (large crabgrass; [7]): 20
Crabgrass, Large plant response rating (large crabgrass; [8]): 30
Plant response rating (0 to 100 scale), Cocklebur (cocklebur; [6]): 50
Cocklebur plant response rating (cocklebur; [7]): 60
Cocklebur plant response rating (cocklebur; [8]): 80
Ducksalad plant response rating (ducksalad): 90
Oat, Wild plant response rating (wild oat; [7]): 20
Oat, Wild plant response rating (wild oat; [8]): 40
Plant response rating (0 to 100 scale), Velvetleaf (velvetleaf; [6]): 80
Velvetleaf plant response rating (velvetleaf; [7]): 20
Velvetleaf plant response rating (velvetleaf; [8]): 80
Rice plant response rating (rice): 80
Plant response rating (0 to 100 scale), Corn (corn; [6]): 90
Corn plant response rating (corn; [7]): 10
Corn plant response rating (corn; [8]): 40
Blackgrass plant response rating (blackgrass; [7]): 30
Blackgrass plant response rating (blackgrass; [8]): 70

CCOC(=O)c1ccc(F)c(NC(=O)c2cc(C3(C)CC3)nn2CC)c1 [Compound 296]
Surinam Grass plant response rating (0 to 100 scale) (Surinam grass; 125 g ai/ha, preemergence): 20
Surinam Grass plant response rating (Surinam grass; [7]): 40
Plant response rating, Surinam Grass (Surinam grass; [2]): 60
Surinam Grass plant response rating (Surinam grass; [4]): 50
Sedge, Umbrella plant response rating [1]: 80
Wheat plant response rating (wheat; [7]): 20
Wheat plant response rating (wheat; [4]): 30
Pigweed plant response rating (0 to 100 scale) (pigweed; 125 g ai/ha, preemergence): 70
Pigweed plant response rating (pigweed; [7]): 80
Plant response rating, Pigweed (pigweed; [2]): 80
Pigweed plant response rating (pigweed; [4]): 100
Lambsquarters plant response rating (0 to 100 scale) (lambsquarters; 125 g ai/ha, preemergence): 90
Lambsquarters plant response rating (lambsquarters; [7]): 50
Plant response rating, Lambsquarters (lambsquarters; [2]): 100
Lambsquarters plant response rating (lambsquarters; [4]): 70
Barnyardgrass plant response rating (0 to 100 scale) (barnyardgrass; 125 g ai/ha, preemergence): 30
Barnyardgrass plant response rating (barnyardgrass; [7]): 30
Plant response rating, Barnyardgrass (barnyardgrass; [2]): 60
Barnyardgrass plant response rating (barnyardgrass; [4]): 80
Foxtail, Giant plant response rating (0 to 100 scale) (giant foxtail; 125 g ai/ha, preemergence): 70
Foxtail, Giant plant response rating (giant foxtail; [7]): 60
Plant response rating, Foxtail, Giant (giant foxtail; [2]): 90
Foxtail, Giant plant response rating (giant foxtail; [4]): 60
Crabgrass, Large plant response rating (0 to 100 scale) (large crabgrass; 125 g ai/ha, preemergence): 40
Crabgrass, Large plant response rating (large crabgrass; [7]): 30
Plant response rating, Crabgrass, Large (large crabgrass; [2]): 100
Crabgrass, Large plant response rating (large crabgrass; [4]): 60
Cocklebur plant response rating (0 to 100 scale) (cocklebur; 125 g ai/ha, preemergence): 0
Cocklebur plant response rating (cocklebur; [7]): 50
Plant response rating, Cocklebur (cocklebur; [2]): 0
Cocklebur plant response rating (cocklebur; [4]): 60
Ducksalad plant response rating (ducksalad): 80
Oat, Wild plant response rating (wild oat; [7]): 30
Oat, Wild plant response rating (wild oat; [4]): 40
Velvetleaf plant response rating (velvetleaf; [7]): 90
Plant response rating, Velvetleaf (velvetleaf; [5]): 80
Velvetleaf plant response rating (velvetleaf; [4]): 100
Rice plant response rating (rice): 60
Corn plant response rating (0 to 100 scale) (corn; 125 g ai/ha, preemergence): 30
Corn plant response rating (corn; [7]): 30
Plant response rating, Corn (corn; [2]): 40
Corn plant response rating (corn; [4]): 70
Blackgrass plant response rating (blackgrass; [7]): 30
Blackgrass plant response rating (blackgrass; [4]): 40
